Assay results from patent publication US6531453B1, “NKT cell activators containing α-glycosylceramides” (Kirin Beera Kabushiki Kaisha, priority 1997, dated 2003).

B1: IL-12: interleukin 12 (IL-12), known to activate NKT cells (protein, UniProt P29459 23-219; P29460 23-328, looked up)
Interleukin-12 subunit alpha: RNLPVATPDPGMFPCLHHSQNLLRAVSNMLQKARQTLEFYPCTSEEIDHEDITKDKTSTVEACLPLELTKNESCLNSRETSFITNGSCLASRKTSFMMALCLSSIYEDLKMYQVEFKTMNAKLLMDPKRQIFLDQNMLAVIDELMQALNFNSETVPQKSSLEEPDFYKTKIKLCILLHAFRIRAVTIDRVMSYLNAS
Interleukin-12 subunit beta: IWELKKDVYVVELDWYPDAPGEMVVLTCDTPEEDGITWTLDQSSEVLGSGKTLTIQVKEFGDAGQYTCHKGGEVLSHSLLLLHKKEDGIWSTDILKDQKEPKNKTFLRCEAKNYSGRFTCWWLTTISTDLTFSVKSSRGSSDPQGVTCGAATLSAERVRGDNKEYEYSVECQEDSACPAAEESLPIEVMVDAVHKLKYENYTSSFFIRDIIKPDPPKNLQLKPLKNSRQVEVSWEYPDTWSTPHSYFSLTFCVQVQGKSKREKKDRVFTDKTSATVICRKNASISVRAQDRYYSSSWSEWASVPCS

Assays:
[1] = system: spleen cells of RAG-1KO/Vα14tg/Vβ8.2tg mice (NKT cells); assay: Stimulation of NKT cell proliferation, [3H]thymidine incorporation in spleen cells; type: cell-based, mouse; conditions: 2 days incubation
Experimental: Stimulation of NKT cell proliferation by compounds having an α-glycosylceramide structure was studied using spleen cells of RAG-1KO/Vα14tg/Vβ8.2tg mice shown in Pharmacological Test Example 1.
Spleen cells were prepared from the spleen of RAG-1KO/Vα14tg/Vβ8.2tg mice by conventional methods. These spleen cells were suspended at 2×10^6 cells/ml in an RPMI 1640 medium supplemented with 10% FCS, and 100 μl each of the suspension were plated into wells of 96-well round-bottomed plates. Ten different kinds of compounds having an α-glycosylceramide structure shown in FIG. 12 were added to the wells of the plates at a final concentration of 1, 10 or 100 ng/ml, and the plates were incubated for 2 days. Sixteen hours after the addition of [^3H] thymidine (0.5 μCi/well), the cells were harvested. The amount of [^3H] thymidine incorporated into the cells was measured by a liquid scintillation counter.

Vα24+ NKT cells = assay: Stimulation of Vα24+ NKT cell proliferation, autologous mixed leukocyte reaction with treated antigen-presenting cells; type: cell-based, human; conditions: antigen-presenting cells treated with 100 ng/ml, FIG. 9
Experimental: Peripheral blood mononuclear cells of a normal human were cultured for 4 days in an AIM medium supplemented with 10% FCS with the addition of GM-CSF (400 U/ml), IL-4 (200 U/ml) and KRN 7000 (100 ng/ml) to prepare antigen-presenting cells.
An autologous mixed leukocyte reaction (MLR) was performed using these antigen-presenting cells as stimulator cells and autologous peripheral blood mononuclear cells as responder cells. After incubation for 10 days, IL-2 (5 U/ml) was added, incubation was continued for another 4 days, and the cells were harvested. Next, CD4, CD8 double negative cells were recovered from these harvested cells and subjected to the phenotype analysis. The phenotypic analysis was expressed by fluorescence intensity of labeled antibodies against cells having various phenotypes.
The cells were cultured using IL-2 (5 U/ml) to stimulate the proliferation of Vα24^+ NKT cells, which were used as responder cells in the following autologous mixed leukocyte reaction. Autologous peripheral blood mononuclear cells were cultured for 4 days with the addition of GM-CSF +IL-4 and 100 ng/ml of KRN 7000, AGL-583 (β-galactosylceramide, β-GalCer) or 0.1% DMSO (vehicle) to prepare antigen-presenting cells. An autologous mixed leukocyte reaction was carried out using these antigen-presenting cells as stimulator cells. […]

[2] = system: 4% DSS-induced mouse colitis (CDF1 mice); assay: Suppression of 4% DSS-induced mouse colitis; type: in vivo; conditions: KRN 7000 100 μg/kg i.p. days 1, 5, 9, IL-12 1 μg/mouse i.p. days 1, 3, 5, 7, 9
Experimental: Ten animals per group of CDF1 mice (6 weeks of age, females) (Japan SLC Inc.) were used for the following experiment. Day 0 was defined as the day when a 4% DSS solution (4% (w/v) dextran sodium sulfate (DSS) dissolved in water) was first provided as drinking water. The animals were divided into 3 groups, i.e., a group to which 100 μg/kg of KRN 7000 were intraperitoneally administered on days 1, 5, and 9, a group to which 1 μg/mouse of IL-12 was intraperitoneally administered on days 1, 3, 5, 7 and 9, and an untreated (control) group. Body weight was measured and survival or death of the animals were observed daily. Changes in body weight and survival rate are shown in FIG. 5A and 5B, respectively.

mice ((CBAxDBA/2)F1) = assay: Induction of abortion in (CBAxDBA/2)F1 mice; type: in vivo, mouse; conditions: same amount of IL-12, same manner
Experimental: C57BL/6 mice (Japan SLC) were used for the following experiment. The day when a vaginal plug was observed was defined as day 0. Pregnant mice were divided into 2 groups (6 mice per group), i.e., one group to which 150 μg/kg of KRN 7000 were intravenously administered on days 7, 8 and 9, and another to which PBS (phosphate-buffered saline) was administered in the same way. On day 12, the uterus was removed to observe the state of the embryo.
IL-12 is also known to activate NKT cells. When the same amount of IL-12 was administered to mice ((CBAxDBA/2)F1) in the same manner, the resulting abortion rate was 34%.

Molecule	[3H] Thymidine incorporation (cpm) ([1]; 1 ng/ml, vehicle 2090)	[3H] Thymidine incorporation (cpm) ([1]; 10 ng/ml, vehicle 2056)	[3H] Thymidine incorporation (cpm) ([1]; 100 ng/ml, vehicle 2014)	effect of treated antigen presenting cells on Vα24+ NKT cell proliferation ([3H]thymidine uptake) (Vα24+ NKT cells)	time of weight loss as compared with the control group ([2]; FIG. 5A)	survival period as compared with the control group ([2]; FIG. 5B)	abortion rate (mice ((CBAxDBA/2)F1))
CCCCCCCCCCCCCCCCCCCCCCCCCC(=O)N[C@@H](CO[C@H]1O[C@H](CO[C@H]2O[C@H](CO)[C@H](O)[C@H](O)[C@H]2O)[C@H](O)[C@H](O)[C@H]1O)[C@H](O)[C@H](O)CCCCCCCCCCCCCC [AGL586, O-α-D-galactopyranosyl-(1→6)-O-α-D-galactopyranosyl-(1→1)-(2S,3S,4R)-2-amino-N-hexacosanoyl-1,3,4-octa decanetriol]	5137 cpm	39750 cpm	102425 cpm				
β-galactosylceramide [reference compound]				no effect			
CCCCCCCCCCCCCCC[C@@H](O)[C@H](CO[C@H]1O[C@H](C)[C@H](O)[C@H](O)[C@H]1O)NC(=O)CCCCCCCCCCCCC [AGL571, (2S,3R)-1-(6′-deoxy-α-D-galactopyranosyloxy)-2-tetra decanoylamino-3-octadecanol]	3969 cpm	17848 cpm	118092 cpm				
CCCCCCCCCCCCCCCCCCCCCC[C@@H](O)C(=O)N[C@@H](CO[C@H]1O[C@H](CO)[C@H](O)[C@H](O[C@H]2O[C@H](CO)[C@H](O)[C@H](O)[C@H]2NC(C)=O)[C@H]1O[C@H]1O[C@H](CO)[C@@H](O)[C@H](O)[C@H]1O)[C@H](O)[C@H](O)CCCCCCCCCCCCCC [STL-8]	4761 cpm	26474 cpm	47141 cpm				
CCCCCCCCCCCCCCC[C@@H](O)[C@H](CO[C@H]1O[C@H](CO)[C@@H](O)[C@H](O)[C@H]1O)NC(=O)CCCCCCCCCCCCC [AGL563, (2S,3R)-1-(α-D-glucopyranosyloxy)-2-tetradecanoyl amino-3-octadecanol]	2063 cpm	3773 cpm	13131 cpm				
CCCCCCCCCCCCCCCCCCCCCC[C@@H](O)C(=O)N[C@@H](CO[C@H]1O[C@H](CO)[C@H](O)[C@H](O[C@@H]2O[C@@H]([C@H](O)CO)[C@H](O)[C@H]2O)[C@H]1O)[C@H](O)[C@H](O)CCCCCCCCCCCCCC [719-7, O-β-D-galactofuranosyl-(1→3)-O-α-D-galactopyranosyl-(1→1)-(2S,3S,4R)-2-amino-N-[(R)-2-hydroxytetracosanoyl]-1,3,4-octadecanetriol]	5287 cpm	30179 cpm	60528 cpm				
CCCCCCCCCCCCCCC[C@@H](O)[C@H](CO[C@H]1OC[C@H](O)[C@H](O)[C@H]1O)NC(=O)CCCCCCCCCCCCC [AGL577, (2S,3R)-1-(β-L-arabinopyranosyloxy)-2-tetradecanoyl amino-3-octadecanol]	2083 cpm	7792 cpm	49701 cpm				
CCCCCCCCCCCCCCCCCCCCCC[C@@H](O)C(=O)N[C@@H](CO[C@H]1O[C@H](CO)[C@H](O)[C@H](O)[C@H]1O[C@H]1O[C@H](CO)[C@H](O)[C@H](O)[C@H]1O)[C@H](O)[C@H](O)CCCCCCCCCCCCCC [S1140B-9, O-α-D-galactopyranosyl-(1→2)-O-α-D-galactopyranosyl-(1→1)-(2S,3S,4R)-2-amino-N-[(R)-2-hydroxytetracosanoyl]-1,3,4-octadecanetriol]	3387 cpm	10265 cpm	49520 cpm				
CCCCCCCCCCCCCCCCCCCCCCCCCC(=O)N[C@@H](CO[C@H]1O[C@H](CO[C@H]2O[C@H](CO)[C@H](O)[C@H](O)[C@H]2O)[C@@H](O)[C@H](O)[C@H]1O)[C@H](O)[C@H](O)CCCCCCCCCCCCCC [AGL584, O-α-D-galactopyranosyl-(1→6)-O-α-D-glucopyranosyl-(1→1)-(2S,3S,4R)-2-amino-N-hexacosanoyl-1,3,4-octadecane triol]	29331 cpm	65084 cpm	96783 cpm				
CCCCCCCCCCCCCCC[C@@H](O)[C@H](CO[C@H]1O[C@H](CO)[C@H](O)[C@H](O)[C@H]1O)NC(=O)CCCCCCCCCCCCC [AGL517, (2S,3R)-1-(α-D-galactopyranosyloxy)-2-tetradecanoyl amino-3-octadecanol]	3176 cpm	15583 cpm	83169 cpm				
B1					at an extremely early period	significantly shorter	34%
